# From publication PMC12519464, “Dual-Site Inhibition of SARS-CoV‑2 RNA-Dependent RNA Polymerase by Small Molecules Able to Block Viral Replication Identified through a Computer-Aided Drug Discovery Approach” (ACS Infectious Diseases, 2025)
# Read-outs that look alike come from different tables or passages of the source.
# Experiments:
# in vitro = conditions: African green monkey
# SARS-CoV-2 RTC = SARS-CoV-2 RTC (Severe acute respiratory syndrome coronavirus 2, UniProt P0DTD1); type: biochemical; conditions: competing against RNA or GTP substrates; Lineweaver-Burk plots
# [1] = target: SARS-CoV-2 nsp12/7/8 (RTC) complex (Severe acute respiratory syndrome coronavirus 2, UniProt P0DTD1); assay: biochemical; type: biochemical
# [2] = system: SARS-CoV-2 (BetaCov/Belgium/GHB-03021/2020); assay: in vitro; conditions: African green monkey
# RNA substrate = assay: Microscale Thermophoresis/Spectral Shift binding assay with RNA substrate (Monolith X); conditions: data not shown
# SARS-CoV-2 = conditions: cited from earlier work
# [3] = system: SARS-CoV-2 (BetaCov/Belgium/GHB-03021/2020); assay: microbe, parasite or virus in culture; conditions: Severe acute respiratory syndrome coronavirus 2, Vero C1008, read-out: EC50: compound concentration required to inhibit SARS-CoV-2 replication by 50%
# [4] = system: SARS-CoV-2 (BetaCov/Belgium/GHB-03021/2020)
# [5] = Compounds cytotoxicity in the Vero E6 cell line; conditions: African green monkey, Vero E6 cells stably expressing GFP, with CP-100356 (P-gp inhibitor), 2 μM
# SARS-CoV-2 minimal RTC = SARS-CoV-2 minimal RTC (Severe acute respiratory syndrome coronavirus 2, UniProt P0DTD1); type: binding
# [6] = primer-extension PAGE assay, 150 nM RTC, 5% DMSO, 30 min preincubation at 37 °C, mean and SD of at least 3 independent experiments
# [7] = 500 µM compound, Microscale Thermophoresis, Fig. S3
Compound,CC50 (in vitro),mode of inhibition of SARS-CoV-2 RdRp (SARS-CoV-2 RTC),"IC50 [1, 6]",selectivity ratio [2],EC50 [3],other results
O=C(O)c1c(Cl)c(Cl)c(Cl)c(Cl)c1-c1c2cc(I)c(=O)c(I)c-2oc2c(I)c(O)c(I)cc12 [Rose bengal],> 100000 nM,mixed model of inhibition,250 ± 3.6 nM,> 546,180 ± 20 nM,"interaction with RNA substrate (RNA substrate): no evidence of interaction; EC50 (SARS-CoV-2; ref previous studies (number not given; probably 25, Rubekina et al.), read-out: EC50, inhibition of SARS-CoV-2 replication): 500 nM"
CC(C)C[C@H](NC(=O)OCc1ccccc1)C(=O)N[C@@H](CC1CCNC1=O)C(O)S(=O)(=O)O (stereo partly drawn) [GC376],,,,,,EC50 ([4]; read-out: EC50: compound concentration required to inhibit SARS-CoV-2 replication by 50%): 60 ± 30 nM; CC50 (Vero E6 GFP): > 100000 nM
"Cc1oc2c(C)c3oc(=O)c(CCC(=O)N4CCC(C(=O)O)(c5ccccc5)CC4)c(C)c3cc2c1-c1ccccc1 [Cmp_4, 4-phenyl-1-[3-(2,5,9-trimethyl-7-oxo-3-phenylfuro[3,2-g]chromen-6-yl)propanoyl]piperidine-4-carboxylic acid]",,,8210 ± 4870 nM,> 38.4,2610 ± 180 nM,CC50 at 24 h (in vitro): > 100000 nM
"CC(=O)O[C@@H]1CC[C@@]2(C)[C@@H](CC[C@]3(C)[C@@H]2C(=O)C=C2[C@@H]4[C@@H](C)[C@H](C)CC[C@]4(C)CC[C@]23C)[C@@]1(C)C(=O)O [AKBA, 3-O-Acetyl-11-Keto-Beta-Boswellic Acid]",,,,> 20.8,4810 ± 2150 nM,IC50 [1]: 4980 ± 1440 nM; CC50 at 24 h [5]: > 100000 nM
CC1(C)CCC(CN2CCN(c3ccc(C(=O)NS(=O)(=O)c4ccc(NCC5CCOCC5)c([N+](=O)[O-])c4)c(Oc4cnc5[nH]ccc5c4)c3)CC2)=C(c2ccc(Cl)cc2)C1 [Venetoclax],> 100000 nM,noncompetitive mode of inhibition,2370 ± 420 nM,> 118,850 ± 80 nM,"response amplitude (SARS-CoV-2 minimal RTC; [7]): 3.9; signal-to-noise ratio (SARS-CoV-2 minimal RTC; [7]): 7.7; binding check to SARS-CoV-2 minimal RTC (SARS-CoV-2 minimal RTC; single concentration of 500 μM of compound): specific binding; EC50 (SARS-CoV-2; ref number not printed in the text (probably 27, Milani et al.), read-out: EC50, inhibition of SARS-CoV-2 replication in cell culture): 6000 nM"
CC(C)C[C@H](NC(=O)OCc1ccccc1)C(=O)N[C@@H](C[C@@H]1CCNC1=O)C(O)S(=O)(=O)[O-].[Na+] (stereo partly drawn) [GC376],,,,,,"SI: selective index, ratio of CC50/EC50 [4]: >5,882"
